Data on 26 molecules can be found in US8143262B2, “7-(3′,4′-Dialkoxyphenyl)[1,2,4]-triazolo[1,5-A]pyrimidine compounds, process for preparing thereof, and pharmaceutical composition for treating or preventing asthma, chronic obstructive pulmonary disease, arthritis, atopic dermatitis, tumor and degenerative brain diseases comprising the same” (Korea Research Institute of Chemical Technology, priority 2007, dated 2012).

T1 sequence (Q08499 386-715 limits assumed): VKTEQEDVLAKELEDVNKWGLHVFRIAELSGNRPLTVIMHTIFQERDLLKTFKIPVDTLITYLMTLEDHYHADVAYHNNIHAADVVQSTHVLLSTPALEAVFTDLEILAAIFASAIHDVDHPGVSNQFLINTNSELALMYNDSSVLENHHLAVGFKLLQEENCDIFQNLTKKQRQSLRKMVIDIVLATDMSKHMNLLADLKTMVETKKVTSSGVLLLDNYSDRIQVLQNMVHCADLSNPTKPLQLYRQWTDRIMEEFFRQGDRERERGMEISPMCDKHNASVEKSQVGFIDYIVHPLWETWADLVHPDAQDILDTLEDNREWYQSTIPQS

One experiment addresses T1, Human PDE-4d (Homo sapiens, UniProt Q08499).
T1 construct: The catalytic domain of PDE4d was cloned to pGEX4T3 (APBiotech) as GST fusion expression vector; GST (N); made in house; host or cells: E. coli BL21, DE3
Kind of experiment: Inhibition of PDE-4 activity ([3H]cAMP hydrolysis, recombinant catalytic domain). Format: biochemical. The conditions noted are these: PDE4d 1 nM, cAMP 250 nM, 34° C., 45 minutes; read-out: IC50 against PDE-4 enzyme. How it is done: Experiment of inhibiting PDE-4 activity was carried out by modifying the method of Loughney (Loughney et al., Journal of Biological Chemistry, 1996, 271(2), 796-806). Human PDE-4d prepared by means of gene recombination technology was used as PDE-4d
The catalytic domain of PDE4d was cloned to pGEX4T3 (APBiotech) as GST fusion expression vector, and then PDE4d gene was transformed to E. coli BL21, DE3. The strain was cultured at 37° C. in LB medium, and when OD reached about 0.3˜0.5, the temperature was lowered to 18° C. to induce expression of PDE4d by using 0.5 mM IPTG. After 15 hours from induction of the expression, cells with PDE4d expressed were recovered. The cells were suspended in a buffer solution (50 mM Tris, pH 8.0, 0.4M NaCl, 5 mM DTT), and crushed, centrifuged and purified. The columns used for the purification were Q-cephalose (APBiotech), Glutanione-cephalose (APBiotech) and Superdex200 gel permeation chromatography (APBiotech), in this order.
In order to measure the ability of individual compound to inhibit PDE4d activity, PDE4d 1 nM and cAMP (Sigma) 250 nM as substrate were added to the reaction buffer (50 mM Tris-HCl (pH 7.5) and 4 mM MgCl2), and individual compound obtained from Example 1 was added in a concentration from 1 to 50 μM thereto, and the mixture was reacted at 34° C. for 45 minutes. Total reaction solution was 60 μl. As to cAMP, a mixture with the ratio of [^3H]cAMP (Amersham, 1 μCi/μl) to cAMP (hot:cold, that is, isotope:non-isotope) being 1:200 was used. Then, the reaction was quenched by heating at 95° C. for 2 minutes. After cooling the mixture for 3 minutes, 1 mg/ml of Snake Venome (Sigma V0376) (30 μl) was added thereto. After reacting at 34° C. for 30 minutes, 30 μl of the reaction mixture was added to 250 μl of DOWEX 1×2-100 ion exchange resin (Aldrich, previously mixed with distilled water in a ratio of 1:1.6) by portions, and the mixture was vigorously stirred for 2 minutes. After settling the resin down, the supernatant (130 μl) was added to 2 ml of scintillation cocktail (Packard), and the mixture was thoroughly mixed, and then measured by using beta-counter. With respect to the enzyme activity of control group (experiment carried out without adding compound of Chemical Formula (1)), the concentration of each test compound to inhibit 50% of enzyme activity was determined as IC50.
The IC50 is the concentration at which inhibition is half-maximal. Take `FC(F)Oc1ccc(-c2ccnc3nc(-c4cccnc4)nn23)cc1OCC1CC1` [Compound 101, 7-[3-(cyclopropylmethoxy)-4-(difluoromethoxy)phenyl]-2-pyridin-3-yl-[1,2,4]triazolo[1,5-a]pyrimidine]: the 50% inhibitory concentration (IC50) amounted to 18 nM.
Regarding `FC(F)Oc1ccc(-c2ccnc3nc(-c4ccncc4)nn23)cc1OCC1CC1` [Compound 103, 7-[3-(Cyclopropylmethoxy)-4-(difluoromethoxy)phenyl]-2-pyridin-4-yl-[1,2,4]triazolo[1,5-a]pyrimidine], the IC50 turned out to be 79 nM.
With `FC(F)Oc1ccc(-c2ccnc3nc(-c4ccc(Cl)nc4)nn23)cc1OCC1CC1` [Compound 104, 2-(6-chloropyridin-3-yl)-7-[3-(cyclopropylmethoxy)-4-(difluoromethoxy)phenyl]-[1,2,4]triazolo[1,5-a]pyrimidine], the IC50 turned out to be 160 nM.
With `FC(F)Oc1ccc(-c2ccnc3nc(-c4cccnc4Cl)nn23)cc1OCC1CC1` [Compound 105, 2-(2-chloropyridin-3-yl)-7-[3-(cyclopropylmethoxy)-4-(difluoromethoxy)phenyl]-[1,2,4]triazolo[1,5-a]pyrimidine], the concentration for half-maximal inhibition (IC50) stood at 52 nM.
Consider `Fc1cccc(-c2nc3nccc(-c4ccc(OC(F)F)c(OCC5CC5)c4)n3n2)c1` [Compound 106, 7-[3-(Cyclopropylmethoxy)-4-(difluoromethoxy)phenyl]-2-(3-fluorophenyl)-[1,2,4]triazolo[1,5-a]pyrimidine], for which the IC50 stood at 23 nM.
Still for that read-out and setting: as for `COc1cccc(-c2nc3nccc(-c4ccc(OC(F)F)c(OCC5CC5)c4)n3n2)c1` [Compound 107, 7-[3-(Cyclopropylmethoxy)-4-(difluoromethoxy)phenyl]-2-(3-methoxyphenyl)-[1,2,4]triazolo[1,5-a]pyrimidine], the figure is 6 nM.
Same read-out and setting: as for `[O-][n+]1cc(-c2nc3nccc(-c4ccc(OC(F)F)c(OCC5CC5)c4)n3n2)ccc1Cl` [Compound 108, 3-[7-{3-(Cyclopropylmethoxy)-4-(difluoromethoxy)phenyl}-[1,2,4]triazolo[1,5-a]pyrimidine-2-yl]-6-Chloropyridine-N-oxide], the figure is 240 nM; as for `[O-][n+]1cccc(-c2nc3nccc(-c4ccc(OC(F)F)c(OCC5CC5)c4)n3n2)c1Cl` [Compound 109, 3-[7-{3-(Cyclopropylmethoxy)-4-(difluoromethoxy)phenyl}-[1,2,4]triazolo[1,5-a]pyrimidine-2-yl]-2-Chloropyridine-N-oxide], 160 nM.
Turning to `[O-][n+]1ccc(-c2nc3nccc(-c4ccc(OC(F)F)c(OCC5CC5)c4)n3n2)cc1` [Compound 110, 4-[7-{3-(Cyclopropylmethoxy)-4-(difluoromethoxy)phenyl}-[1,2,4]triazolo[1,5-a]pyrimidine-2-yl]-pyridine-N-oxide], the IC50 is 160 nM.
The same measure, in the same setting: in the case of `FC(F)Oc1ccc(-c2ccnc3nc(-c4cccnc4)nn23)cc1OCC1CC1` [Compound 111, 3-[7-{3-(cyclopropylmethoxy)-4-(difluoromethoxy)phenyl}-[1,2,4]triazolo[1,5-a]pyrimidin-2-yl]-pyridinium bisulfate] it was 42 nM; in that of `FC(F)Oc1ccc(-c2ccnc3nc(-c4cccnc4)nn23)cc1OCC1CC1` [Compound 112, 3-[7-{3-(cyclopropylmethoxy)-4-(difluoromethoxy)phenyl}-[1,2,4]triazolo[1,5-a]pyrimidin-2-yl]-pyridinium chloride], 33 nM.
For `Cc1ccc(-c2nc3nccc(-c4ccc(OC(F)F)c(OCC5CC5)c4)n3n2)cc1` [Compound 113, 7-[3-(Cyclopropylmethoxy)-4-(difluoromethoxy)phenyl]-2-p-tolyl-[1,2,4]triazolo[1,5-a]pyrimidine], the IC50 is 50 nM.
In the case of `FC(F)Oc1ccc(-c2ccnc3nc(-c4cccnc4)nn23)cc1OC(F)F` [Compound 114, 7-(3,4-Bis-difluoromethoxyphenyl)-2-pyridin-3-yl[1,2,4]triazolo[1,5-a]pyrimidine], the IC50 came out at 170 nM.
Consider `N#Cc1cccc(-c2nc3nccc(-c4ccc(OC(F)F)c(OCC5CC5)c4)n3n2)c1` [Compound 115, 2-(3-Cyanophenyl)-7-[3-(cyclopropylmethoxy)-4-(difluoromethoxy)phenyl]-[1,2,4]triazolo[1,5-a]pyrimidine], for which the IC50 was 10 nM.
Consider `O=[N+]([O-])c1cccc(-c2nc3nccc(-c4ccc(OC(F)F)c(OCC5CC5)c4)n3n2)c1` [Compound 116, 7-[3-(Cyclopropylmethoxy)-4-(difluoromethoxy)phenyl]-2-(3-nitrophenyl)-[1,2,4]triazolo[1,5-a]pyrimidine], for which the half-inhibitory concentration (IC50) turned out to be 20 nM.
Still for that read-out and setting: as for `N#Cc1ccc(-c2nc3nccc(-c4ccc(OC(F)F)c(OCC5CC5)c4)n3n2)cc1` [Compound 117, 2-(4-Cyanophenyl)-7-[3-(cyclopropylmethoxy)-4-(difluoromethoxy)phenyl]-[1,2,4]triazolo[1,5-a]pyrimidine], the figure is 50 nM; as for `O=C(O)c1ccc(-c2nc3nccc(-c4ccc(OC(F)F)c(OCC5CC5)c4)n3n2)cc1` [Compound 118, 4-[7-{3-(cyclopropylmethoxy)-4-(difluoromethoxy)phenyl}-[1,2,4]triazolo[1,5-a]pyrimidin-2-yl]benzoic acid], 30 nM; as for `Nc1cccc(-c2nc3nccc(-c4ccc(OC(F)F)c(OCC5CC5)c4)n3n2)c1` [Compound 119, 2-(3-Aminophenyl)-7-[3-(cyclopropylmethoxy)-4-(difluoromethoxy)phenyl]-[1,2,4]triazolo[1,5-a]pyrimidine], 6 nM.
Regarding `FC(F)Oc1ccc(-c2ccnc3nc(-c4cccc(Cl)c4)nn23)cc1OCC1CC1` [Compound 120, 2-(3-Chlorophenyl)-7-[3-(cyclopropylmethoxy)-4-(difluoromethoxy)phenyl]-[1,2,4]triazolo[1,5-a]pyrimidine], the IC50 amounted to 40 nM.
For `FC(F)Oc1ccc(-c2ccnc3nc(-c4cccc(Br)c4)nn23)cc1OCC1CC1` [Compound 121, 2-(3-Bromophenyl)-7-[3-(cyclopropylmethoxy)-4-(difluoromethoxy)phenyl]-[1,2,4]triazolo[1,5-a]pyrimidine], the half-maximal inhibitory concentration (IC50) came to 14 nM.
Turning to `N#Cc1cccc(-c2nc3nccc(-c4ccc(OC(F)F)c(OC(F)F)c4)n3n2)c1` [Compound 122, 7-(3,4-Bis-difluoromethoxyphenyl)-2-(3-cyanophenyl)-[1,2,4]triazolo[1,5-a]pyrimidine], the IC50 turned out to be 47 nM.
For the molecule `N#Cc1ccc(-c2nc3nccc(-c4ccc(OC(F)F)c(OCC5CC5)c4)n3n2)cn1` [Compound 123, 2-(2-cyano-pyridin-5-yl)-7-[3-(cyclopropylmethoxy)-4-(difluoromethoxy)phenyl]-[1,2,4]triazolo[1,5-a]pyrimidine], the half-inhibitory concentration (IC50) is 170 nM.
`N#Cc1ncccc1-c1nc2nccc(-c3ccc(OC(F)F)c(OCC4CC4)c3)n2n1` [Compound 124, 2-(6-cyano-pyridin-5-yl)-7-[3-(cyclopropylmethoxy)-4-(difluoromethoxy)phenyl]-[1,2,4]triazolo[1,5-a]pyrimidine]: the IC50 stood at 190 nM.
Turning to `FC(F)Oc1ccc(-c2ccnc3nc(-c4ccc(C(F)(F)F)cc4)nn23)cc1OCC1CC1` [Compound 125, 7-[3-(Cyclopropylmethoxy)-4-(difluoromethoxy)phenyl]-2-(4-trifluoromethylphenyl)-[1,2,4]triazolo[1,5-a]pyrimidine], the half-maximal inhibitory concentration (IC50) came out at 190 nM.
For `FC(F)Oc1ccc(-c2ccnc3nc(-c4cccc(I)c4)nn23)cc1OCC1CC1` [Compound 126, 7-[3-(Cyclopropylmethoxy)-4-(difluoromethoxy)phenyl]-2-(3-iodophenyl)-[1,2,4]triazolo[1,5-a]pyrimidine], the half-inhibitory concentration (IC50) came to 5 nM.
As for `FC(F)Oc1ccc(-c2ccnc3nc(-c4ccc(I)cc4)nn23)cc1OCC1CC1` [Compound 127, 7-[3-(Cyclopropylmethoxy)-4-(difluoromethoxy)phenyl]-2-(4-iodophenyl)-[1,2,4]triazolo[1,5-a]pyrimidine], the IC50 came out at 50 nM.

Staying with this experiment, now noted: comment on Table 2.
`COc1cccc(-c2nc3nccc(-c4ccc(OC(F)F)c(OCC5CC5)c4)n3n2)c1` [Compound 107, 7-[3-(Cyclopropylmethoxy)-4-(difluoromethoxy)phenyl]-2-(3-methoxyphenyl)-[1,2,4]triazolo[1,5-a]pyrimidine]: the “activity on inhibiting PDE-4 (in words)” value is recorded as “excellent activity on inhibiting PDE-4”.
As for `N#Cc1cccc(-c2nc3nccc(-c4ccc(OC(F)F)c(OCC5CC5)c4)n3n2)c1` [Compound 115, 2-(3-Cyanophenyl)-7-[3-(cyclopropylmethoxy)-4-(difluoromethoxy)phenyl]-[1,2,4]triazolo[1,5-a]pyrimidine], the “activity on inhibiting PDE-4 (in words)” value is “excellent activity on inhibiting PDE-4”.
As to `Nc1cccc(-c2nc3nccc(-c4ccc(OC(F)F)c(OCC5CC5)c4)n3n2)c1` [Compound 119, 2-(3-Aminophenyl)-7-[3-(cyclopropylmethoxy)-4-(difluoromethoxy)phenyl]-[1,2,4]triazolo[1,5-a]pyrimidine], the “activity on inhibiting PDE-4 (in words)” value was “excellent activity on inhibiting PDE-4”.
Regarding `FC(F)Oc1ccc(-c2ccnc3nc(-c4cccc(Br)c4)nn23)cc1OCC1CC1` [Compound 121, 2-(3-Bromophenyl)-7-[3-(cyclopropylmethoxy)-4-(difluoromethoxy)phenyl]-[1,2,4]triazolo[1,5-a]pyrimidine], the “activity on inhibiting PDE-4 (in words)” value is “excellent activity on inhibiting PDE-4”.
On the same count and under the same terms, as for `FC(F)Oc1ccc(-c2ccnc3nc(-c4cccc(I)c4)nn23)cc1OCC1CC1` [Compound 126, 7-[3-(Cyclopropylmethoxy)-4-(difluoromethoxy)phenyl]-2-(3-iodophenyl)-[1,2,4]triazolo[1,5-a]pyrimidine], the entry is “most excellent activity”.
